Measurements reported in publication PMC4300089, “Structure-Guided Design of Selective Epac1 and Epac2 Agonists” (PLoS Biology, 2015).

How the values were obtained:
Assay type in all cases: biochemical
Epac2^Δ280 = biological target: T1, Epac2^Δ280 (Mus musculus, UniProt Q9EQZ6); assay: Epac activation assay (Rap1B•mGDP fluorescence nucleotide exchange), Epac2^Δ280; conditions: Epac2^Δ280; for Rel. kmax: maximal activity relative to cAMP
T1 construct: made in house
T1 sequence (Q9EQZ6 281-993 isoform Q9EQZ6-3): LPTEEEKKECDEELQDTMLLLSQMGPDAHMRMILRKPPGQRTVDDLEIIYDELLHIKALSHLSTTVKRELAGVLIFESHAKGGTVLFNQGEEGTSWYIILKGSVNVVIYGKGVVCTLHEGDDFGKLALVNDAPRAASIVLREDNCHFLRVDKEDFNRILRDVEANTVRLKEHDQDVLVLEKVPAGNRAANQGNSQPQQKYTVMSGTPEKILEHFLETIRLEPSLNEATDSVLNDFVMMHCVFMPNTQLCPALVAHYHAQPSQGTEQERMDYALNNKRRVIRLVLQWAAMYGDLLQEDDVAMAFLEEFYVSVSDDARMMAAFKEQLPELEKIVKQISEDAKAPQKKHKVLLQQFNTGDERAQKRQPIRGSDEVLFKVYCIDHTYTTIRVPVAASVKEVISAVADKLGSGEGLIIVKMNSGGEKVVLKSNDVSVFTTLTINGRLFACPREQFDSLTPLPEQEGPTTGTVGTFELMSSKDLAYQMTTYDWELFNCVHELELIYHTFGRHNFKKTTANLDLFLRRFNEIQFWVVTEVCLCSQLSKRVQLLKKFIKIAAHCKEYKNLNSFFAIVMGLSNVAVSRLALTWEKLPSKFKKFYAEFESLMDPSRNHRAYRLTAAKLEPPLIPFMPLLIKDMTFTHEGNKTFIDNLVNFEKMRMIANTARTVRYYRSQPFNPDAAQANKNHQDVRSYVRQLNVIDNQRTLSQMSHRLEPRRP
Experimental: Murine Epac2 was used as all previous structural studies were performed with it.
The activity of Epac was determined by a fluorescence assay. […] The fluorescence intensity of Rap1B•mGDP is approximately twice that of free mGDP, and thus, nucleotide exchange can be observed as a decay in fluorescence upon the addition of excess unlabeled GDP.

PKA-Iα = biological target: T2, PKA-Iα (Homo sapiens, UniProt P10644); assay: PKA activity assay (coupled spectrophotometric, Kemptide), PKA-Iα; conditions: for A (PKA activity): PKAIα
T2 construct: made in house
T2 sequence (P10644 whole entry): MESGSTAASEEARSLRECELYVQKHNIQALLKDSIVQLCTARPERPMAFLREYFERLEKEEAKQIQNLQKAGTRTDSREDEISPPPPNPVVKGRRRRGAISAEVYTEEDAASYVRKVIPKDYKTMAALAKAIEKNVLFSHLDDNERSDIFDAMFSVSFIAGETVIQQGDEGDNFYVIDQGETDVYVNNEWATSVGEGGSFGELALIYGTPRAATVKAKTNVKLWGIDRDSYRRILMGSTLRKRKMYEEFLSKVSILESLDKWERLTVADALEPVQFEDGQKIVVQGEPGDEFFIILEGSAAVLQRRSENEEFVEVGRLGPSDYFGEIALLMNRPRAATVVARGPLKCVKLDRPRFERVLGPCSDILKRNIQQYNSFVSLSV
Experimental: (§1) The recombinant human PKA catalytic subunit (Cα1) and the four human PKA regulatory subunits (RIα, RIβ, RIIα, RIIβ) were expressed, purified, and characterized as described. […] PKA holoenzymes were formed by mixing the R- and C-subunit at a molar ratio of 1.2:1 and extensive dialysis against 20 mM MOPS (pH 7.0), 150 mM NaCl, 2.5 mM β-mercaptoethanol, supplemented with 1 mM ATP and 10 mM MgCl2 for PKA-I at 4°C overnight. PKA holoenzymes were used at about 20 nM for the activation assay. The apparent activation constants (Kact) were determined by fitting the concentration-dependent activity to a sigmoid dose-response model.

PKA-IIα = biological target: T3, PKA-IIα (Homo sapiens, UniProt P13861); assay: PKA activity assay, PKA-IIα; conditions: for A (PKA activity): PKAIIα
T3 construct: made in house
T3 sequence (P13861 whole entry): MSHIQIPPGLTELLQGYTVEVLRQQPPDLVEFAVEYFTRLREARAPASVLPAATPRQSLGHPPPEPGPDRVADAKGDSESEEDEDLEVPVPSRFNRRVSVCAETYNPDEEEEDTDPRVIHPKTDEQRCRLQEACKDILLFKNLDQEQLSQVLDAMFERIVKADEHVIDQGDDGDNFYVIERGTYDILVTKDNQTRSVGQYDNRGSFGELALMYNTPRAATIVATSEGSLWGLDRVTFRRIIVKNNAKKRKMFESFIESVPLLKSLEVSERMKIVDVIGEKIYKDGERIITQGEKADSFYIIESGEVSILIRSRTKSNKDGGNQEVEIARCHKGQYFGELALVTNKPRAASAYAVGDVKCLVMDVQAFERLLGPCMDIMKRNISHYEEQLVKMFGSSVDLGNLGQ
Experimental: as §1

SMILES: Nc1ncnc2c1nc(Sc1ccc(Cl)cc1)n2[C@@H]1O[C@@H]2COP(=O)(O)O[C@H]2[C@H]1O [L-026, 8-pCPT-cAMP]
- AC50 (Epac2^Δ280): 0.08 µM
- Rel. kmax (Epac2^Δ280): 0.5

SMILES: COC1C2OP(=O)(O)OCC2OC1n1c(Sc2ccc(Cl)cc2)nc2c(N)ncnc21 [D-007, 8-pCPT-2′-O-Me-cAMP, reference compound]
- AC50 (Epac2^Δ280): 3.5 µM
- Rel. kmax (Epac2^Δ280): 0.8
- EC50 (PKA-Iα; PKA-Iα, read-out: Kact): 14 µM
- A (PKA activity) (PKA-Iα; concentration 1 μM): 3.924 U/mg
- A (PKA activity) (PKA-Iα; concentration 1.00E+01 μM): 1.06E+01 U/mg
- A (PKA activity) (PKA-Iα; concentration 1.00E+02 μM): 1.58E+01 U/mg
- A (PKA activity) (PKA-Iα; concentration 1.00E-01 μM): 3.7714 U/mg
- A (PKA activity) (PKA-Iα; concentration 1.00E-03 μM): 3.6515 U/mg
- A (PKA activity) (PKA-Iα; concentration 1.00E-05 μM): 2.6923 U/mg
- A (PKA activity) (PKA-Iα; concentration 2.50E+01 μM): 1.22E+01 U/mg
- A (PKA activity) (PKA-Iα; concentration 2.50E+02 μM): 1.83E+01 U/mg
- A (PKA activity) (PKA-Iα; concentration 5.00E+02 μM): 1.79E+01 U/mg
- A (PKA activity) (PKA-Iα; concentration […]): 7.9352 U/mg
- EC50 (PKA-IIα; PKA-IIα, read-out: Kact): > 70 µM
- A (PKA activity) (PKA-IIα; concentration 1 μM): 7.998 U/mg
- A (PKA activity) (PKA-IIα; concentration 1.00E+01 μM): 1.14E+01 U/mg
- A (PKA activity) (PKA-IIα; concentration 1.00E+03 μM): 1.97E+01 U/mg
- A (PKA activity) (PKA-IIα; concentration 1.00E-01 μM): 4.917 U/mg
- A (PKA activity) (PKA-IIα; concentration 1.00E-02 μM): 4.453 U/mg
- A (PKA activity) (PKA-IIα; concentration 1.00E-03 μM): 5.045 U/mg
- A (PKA activity) (PKA-IIα; concentration 1.00E-04 μM): 4.937 U/mg
- A (PKA activity) (PKA-IIα; concentration 1.00E-05 μM): 3.782 U/mg
- A (PKA activity) (PKA-IIα; concentration 2.50E+02 μM): 1.57E+01 U/mg
- A (PKA activity) (PKA-IIα; concentration 5.00E+01 μM): 1.39E+01 U/mg
- A (PKA activity) (PKA-IIα; concentration 5.00E+02 μM): 1.77E+01 U/mg
- A (PKA activity) (PKA-IIα; concentration […]): 9.518 U/mg
